Test results from ChEMBL document CHEMBL1201862, “PubChem BioAssay data set” (2004).
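A five-concentration, 48-hour dose response in 96-well plates underlies each endpoint, interpolated linearly between surrounding concentrations. Here, GI50 denotes the concentration required for 50% inhibition of growth.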 Calls of active or inactive are those of the source. Rule as the data show it: active = GI50 up to about 1.1 µM and inactive = higher.

Legend:
Assay in all cases: NCI-60 cell line screen, 48 h
SF-295 = test system: SF-295
CAKI-1 = test system: CAKI-1
RPMI-8226 = test system: RPMI-8226
UACC-257 = test system: UACC-257
KM12 = test system: KM12
SR = test system: SR
HT-29 = test system: HT-29
HCT-15 = test system: HCT-15
SNB-19 = test system: SNB-19
SW-620 = test system: SW-620
IGROV-1 = test system: IGROV-1
OVCAR-8 = test system: OVCAR-8
UACC-62 = test system: UACC-62
TK-10 = test system: TK-10
NCI-H226 = test system: NCI-H226
SK-OV-3 = test system: SK-OV-3
SN12C = test system: SN12C
SK-MEL-2 = test system: SK-MEL-2
OVCAR-5 = test system: OVCAR-5
OVCAR-4 = test system: OVCAR-4

NC1=NCC(CN2CCCCC2)O1 (centres undefined)
GI50 (SF-295): > 100 µM (inactive) | GI50 (CAKI-1): > 100 µM (inactive) | GI50 (RPMI-8226): > 100 µM (inactive) | GI50 (UACC-257): > 100 µM (inactive) | GI50 (KM12): > 100 µM (inactive) | GI50 (SR): > 100 µM (inactive) | GI50 (HT-29): > 100 µM (inactive) | GI50 (HCT-15): > 100 µM | GI50 (SNB-19): > 100 µM (inactive) | GI50 (SW-620): > 100 µM (inactive) | GI50 (IGROV-1): > 100 µM (inactive) | GI50 (OVCAR-8): > 100 µM (inactive) | GI50 (UACC-62): > 100 µM (inactive) | GI50 (TK-10): > 100 µM (inactive) | GI50 (NCI-H226): > 100 µM (inactive) | GI50 (SK-OV-3): 4.12 µM (inactive) | GI50 (SN12C): > 100 µM (inactive)

CC(=O)OC1CC[C@@]2(C)C(=CC[C@@H]3[C@@H]2CC[C@]2(C)C(OC(C)=O)[C@H](n4ccnc4)C[C@@H]32)C1 (some centres undefined)
GI50 (SF-295): 31.7 µM (inactive) | GI50 (CAKI-1): 49.1 µM (inactive) | GI50 (SK-MEL-2): 16.8 µM (inactive) | GI50 (RPMI-8226): 17.3 µM (inactive) | GI50 (OVCAR-5): 74.1 µM (inactive) | GI50 (UACC-257): 17.3 µM (inactive) | GI50 (KM12): 16.7 µM (inactive) | GI50 (SR): 16.1 µM (inactive) | GI50 (HT-29): 10.7 µM (inactive) | GI50 (HCT-15): 15.5 µM | GI50 (SNB-19): 62.8 µM (inactive) | GI50 (SW-620): 33.6 µM (inactive) | GI50 (IGROV-1): 34.4 µM (inactive) | GI50 (OVCAR-8): 17.1 µM (inactive) | GI50 (UACC-62): 16.1 µM (inactive) | GI50 (TK-10): > 100 µM (inactive) | GI50 (OVCAR-4): 20.9 µM (inactive) | GI50 (NCI-H226): 36.6 µM (inactive) | GI50 (SN12C): 56 µM (inactive)

CC1CC(c2ccc(Cl)c(Cl)c2)=Nc2ccccc2S1 (centres undefined)
GI50 (SF-295): > 100 µM (inactive) | GI50 (CAKI-1): > 100 µM (inactive) | GI50 (RPMI-8226): > 100 µM (inactive) | GI50 (OVCAR-5): > 100 µM (inactive) | GI50 (UACC-257): > 100 µM (inactive) | GI50 (KM12): > 100 µM (inactive) | GI50 (SR): 46 µM (inactive) | GI50 (HT-29): > 100 µM (inactive) | GI50 (HCT-15): > 100 µM | GI50 (SNB-19): > 100 µM (inactive) | GI50 (SW-620): > 100 µM (inactive) | GI50 (IGROV-1): > 100 µM (inactive) | GI50 (OVCAR-8): > 100 µM (inactive) | GI50 (UACC-62): > 100 µM (inactive) | GI50 (TK-10): > 100 µM (inactive) | GI50 (OVCAR-4): > 100 µM (inactive) | GI50 (NCI-H226): > 100 µM (inactive) | GI50 (SK-OV-3): > 100 µM (inactive) | GI50 (SN12C): > 100 µM (inactive)

CCN(CC)CCOC(NC(C)=O)(c1ccccc1)c1ccccc1
GI50 (SF-295): > 100 µM (inactive) | GI50 (RPMI-8226): > 100 µM (inactive) | GI50 (OVCAR-5): > 100 µM (inactive) | GI50 (UACC-257): > 100 µM (inactive) | GI50 (KM12): > 100 µM (inactive) | GI50 (SR): > 100 µM (inactive) | GI50 (HT-29): > 100 µM (inactive) | GI50 (HCT-15): > 100 µM | GI50 (SNB-19): > 100 µM (inactive) | GI50 (SW-620): > 100 µM (inactive) | GI50 (IGROV-1): > 100 µM (inactive) | GI50 (OVCAR-8): > 100 µM (inactive) | GI50 (UACC-62): > 100 µM (inactive) | GI50 (TK-10): > 100 µM (inactive) | GI50 (OVCAR-4): > 100 µM (inactive) | GI50 (NCI-H226): > 100 µM (inactive) | GI50 (SK-OV-3): > 100 µM (inactive) | GI50 (SN12C): > 100 µM (inactive)

O=C1OC(c2ccccc2)=N/C1=C/NC(Cc1c[nH]c2ccccc12)C(=O)O (centres undefined)
GI50 (SF-295): > 100 µM (inactive) | GI50 (SK-MEL-2): > 100 µM (inactive) | GI50 (RPMI-8226): > 100 µM (inactive) | GI50 (OVCAR-5): > 100 µM (inactive) | GI50 (UACC-257): > 100 µM (inactive) | GI50 (SR): > 100 µM (inactive) | GI50 (HT-29): > 100 µM (inactive) | GI50 (HCT-15): > 100 µM | GI50 (SNB-19): > 100 µM (inactive) | GI50 (SW-620): > 100 µM (inactive) | GI50 (IGROV-1): > 100 µM (inactive) | GI50 (OVCAR-8): > 100 µM (inactive) | GI50 (UACC-62): > 100 µM (inactive) | GI50 (TK-10): > 100 µM (inactive) | GI50 (OVCAR-4): > 100 µM (inactive) | GI50 (NCI-H226): > 100 µM (inactive) | GI50 (SK-OV-3): > 100 µM (inactive) | GI50 (SN12C): > 100 µM (inactive)

COc1ccc(-c2cc(O)c3cc(Cl)ccc3n2)cc1
GI50 (SF-295): > 100 µM (inactive) | GI50 (RPMI-8226): > 100 µM (inactive) | GI50 (OVCAR-5): > 100 µM (inactive) | GI50 (UACC-257): > 100 µM (inactive) | GI50 (KM12): 91.8 µM (inactive) | GI50 (SR): > 100 µM (inactive) | GI50 (HT-29): > 100 µM (inactive) | GI50 (SNB-19): > 100 µM (inactive) | GI50 (SW-620): > 100 µM (inactive) | GI50 (IGROV-1): > 100 µM (inactive) | GI50 (OVCAR-8): > 100 µM (inactive) | GI50 (UACC-62): > 100 µM (inactive) | GI50 (TK-10): > 100 µM (inactive) | GI50 (OVCAR-4): > 100 µM (inactive) | GI50 (NCI-H226): > 100 µM (inactive) | GI50 (SK-OV-3): > 100 µM (inactive) | GI50 (SN12C): > 100 µM (inactive)

C1=C(c2ccccc2)SC(N2CCCCC2)S1 (centres undefined)
GI50 (SF-295): > 100 µM (inactive) | GI50 (SK-MEL-2): > 100 µM (inactive) | GI50 (RPMI-8226): 59.7 µM (inactive) | GI50 (OVCAR-5): > 100 µM (inactive) | GI50 (UACC-257): > 100 µM (inactive) | GI50 (KM12): > 100 µM (inactive) | GI50 (SR): 90.8 µM (inactive) | GI50 (HT-29): > 100 µM (inactive) | GI50 (HCT-15): > 100 µM | GI50 (SNB-19): > 100 µM (inactive) | GI50 (SW-620): > 100 µM (inactive) | GI50 (IGROV-1): > 100 µM (inactive) | GI50 (UACC-62): > 100 µM (inactive) | GI50 (TK-10): > 100 µM (inactive) | GI50 (OVCAR-4): > 100 µM (inactive) | GI50 (NCI-H226): > 100 µM (inactive) | GI50 (SK-OV-3): > 100 µM (inactive) | GI50 (SN12C): > 100 µM (inactive)

Nc1nc(Cl)cc(NC2(CO)CCC2)n1
GI50 (SF-295): > 100 µM (inactive) | GI50 (CAKI-1): 89.5 µM (inactive) | GI50 (SK-MEL-2): > 100 µM (inactive) | GI50 (RPMI-8226): > 100 µM (inactive) | GI50 (OVCAR-5): > 100 µM (inactive) | GI50 (UACC-257): > 100 µM (inactive) | GI50 (KM12): > 100 µM (inactive) | GI50 (SR): > 100 µM (inactive) | GI50 (HT-29): > 100 µM (inactive) | GI50 (HCT-15): > 100 µM | GI50 (SW-620): > 100 µM (inactive) | GI50 (IGROV-1): > 100 µM (inactive) | GI50 (OVCAR-8): > 100 µM (inactive) | GI50 (UACC-62): > 100 µM (inactive) | GI50 (TK-10): > 100 µM (inactive) | GI50 (OVCAR-4): > 100 µM (inactive) | GI50 (NCI-H226): > 100 µM (inactive) | GI50 (SN12C): > 100 µM (inactive)
